{"source": "PubChem BioAssay (NCI)", "test_in_all_cases": "NCI tumour cell line growth inhibition, 48 h", "key": {"[1]": {"tested_on": "SNB-75 CNS"}, "[2]": {"tested_on": "M19-MEL melanoma"}, "[3]": {"tested_on": "IGROV1 ovarian"}, "[4]": {"tested_on": "MCF7 breast"}, "[5]": {"tested_on": "NCI-H522 lung"}, "[6]": {"tested_on": "OVCAR-5 ovarian"}, "[7]": {"tested_on": "SW-620 colon"}, "[8]": {"tested_on": "SK-MEL-5 melanoma"}, "[9]": {"tested_on": "LOX IMVI melanoma"}, "[10]": {"tested_on": "EKVX NSCLC"}, "[11]": {"tested_on": "SK-MEL-2 melanoma"}, "[12]": {"tested_on": "OVCAR-3 ovarian"}, "[13]": {"tested_on": "NCI-H460 lung"}, "[14]": {"tested_on": "K-562 leukemia"}, "[15]": {"tested_on": "SF-539 CNS"}, "[16]": {"tested_on": "KM12 colon"}, "[17]": {"tested_on": "SN12C renal"}, "[18]": {"tested_on": "RXF 393 renal"}, "[19]": {"tested_on": "OVCAR-4 ovarian"}, "[20]": {"tested_on": "XF 498 CNS"}, "[21]": {"tested_on": "CAKI-1 renal"}, "[22]": {"tested_on": "NCI/ADR-RES ovarian"}, "[23]": {"tested_on": "SN12K1 renal"}, "[24]": {"tested_on": "SK-OV-3 ovarian"}, "[25]": {"tested_on": "A549 NSCLC"}, "[26]": {"tested_on": "HT29 colon"}, "[27]": {"tested_on": "MALME-3M melanoma"}, "[28]": {"tested_on": "MOLT-4 leukemia"}, "[29]": {"tested_on": "DMS 114 small cell lung"}, "[30]": {"tested_on": "HCT-116 colon"}, "[31]": {"tested_on": "SK-MEL-28 melanoma"}, "[32]": {"tested_on": "DLD-1 colon"}, "[33]": {"tested_on": "NCI-H23 lung"}, "[34]": {"tested_on": "HCT-15 colon"}, "[35]": {"tested_on": "SF-295 CNS"}, "[36]": {"tested_on": "HL-60(TB) leukemia"}, "[37]": {"tested_on": "UO-31 renal"}, "[38]": {"tested_on": "HOP-92 NSCLC"}, "[39]": {"tested_on": "CCRF-CEM leukemia"}, "[40]": {"tested_on": "UACC-62 melanoma"}, "[41]": {"tested_on": "KM20L2 colon"}, "[42]": {"tested_on": "NCI-H226 lung"}, "[43]": {"tested_on": "COLO 205 colon"}, "[44]": {"tested_on": "UACC-257 melanoma"}, "[45]": {"tested_on": "HCC-2998 colon"}, "[46]": {"tested_on": "RPMI-8226 leukemia"}, "[47]": {"tested_on": "P388 leukemia"}, "[48]": {"tested_on": "HOP-18 NSCLC"}, "[49]": {"tested_on": "SNB-78 CNS"}, "[50]": {"tested_on": "A498 renal"}, "[51]": {"tested_on": "DMS 273 small cell lung"}, "[52]": {"tested_on": "OVCAR-8 ovarian"}, "[53]": {"tested_on": "U251 CNS"}, "[54]": {"tested_on": "SF-268 CNS"}, "[55]": {"tested_on": "HOP-62 NSCLC"}, "[56]": {"tested_on": "SNB-19 CNS"}, "[57]": {"tested_on": "P388/ADR leukemia"}}, "note": "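Exposure lasted 48 hours, with cells grown in 96-well plates and compounds tested at five concentrations. TGI marks complete inhibition of growth.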", "data": [{"smiles": "CCOC(=O)CN1CCSC1=NC#N", "values": [{"measurement": "TGI", "setting": "[1]", "result": "> 100", "unit": "µM"}, {"measurement": "TGI", "setting": "[2]", "result": "> 100", "unit": "µM"}, {"measurement": "TGI", "setting": "[3]", "result": "> 100", "unit": "µM"}, {"measurement": "TGI", "setting": "[4]", "result": "> 100", "unit": "µM"}, {"measurement": "TGI", "setting": "[5]", "result": "> 100", "unit": "µM"}, {"measurement": "TGI", "setting": "[6]", "result": "> 100", "unit": "µM"}, {"measurement": "TGI", "setting": "[7]", "result": "> 100", "unit": "µM"}, {"measurement": "TGI", "setting": "[8]", "result": "> 100", "unit": "µM"}, {"measurement": "TGI", "setting": "[9]", "result": "> 37.6", "unit": "µM"}, {"measurement": "TGI", "setting": "[10]", "result": "> 100", "unit": "µM"}, {"measurement": "TGI", "setting": "[11]", "result": "> 100", "unit": "µM"}, {"measurement": "TGI", "setting": "[12]", "result": "> 100", "unit": "µM"}, {"measurement": "TGI", "setting": "[13]", "result": "> 31.6", "unit": "µM"}, {"measurement": "TGI", "setting": "[14]", "result": "> 100", "unit": "µM"}, {"measurement": "TGI", "setting": "[15]", "result": "> 100", "unit": "µM"}, {"measurement": "TGI", "setting": "[16]", "result": "> 100", "unit": "µM"}, {"measurement": "TGI", "setting": "[17]", "result": "> 100", "unit": "µM"}, {"measurement": "TGI", "setting": "[18]", "result": "> 100", "unit": "µM"}, {"measurement": "TGI", "setting": "[19]", "result": "> 100", "unit": "µM"}, {"measurement": "TGI", "setting": "[20]", "result": "> 100", "unit": "µM"}, {"measurement": "TGI", "setting": "[21]", "result": "> 100", "unit": "µM"}, {"measurement": "TGI", "setting": "[22]", "result": "> 100", "unit": "µM"}, {"measurement": "TGI", "setting": "[23]", "result": "> 100", "unit": "µM"}, {"measurement": "TGI", "setting": "[24]", "result": "> 100", "unit": "µM"}, {"measurement": "TGI", "setting": "[25]", "result": "> 100", "unit": "µM"}, {"measurement": "TGI", "setting": "[26]", "result": "> 100", "unit": "µM"}, {"measurement": "TGI", "setting": "[27]", "result": "> 100", "unit": "µM"}, {"measurement": "TGI", "setting": "[28]", "result": "> 100", "unit": "µM"}, {"measurement": "TGI", "setting": "[29]", "result": "> 100", "unit": "µM"}, {"measurement": "TGI", "setting": "[30]", "result": "> 100", "unit": "µM"}, {"measurement": "TGI", "setting": "[31]", "result": "> 100", "unit": "µM"}, {"measurement": "TGI", "setting": "[32]", "result": "> 100", "unit": "µM"}, {"measurement": "TGI", "setting": "[33]", "result": "> 100", "unit": "µM"}, {"measurement": "TGI", "setting": "[34]", "result": "> 100", "unit": "µM"}, {"measurement": "TGI", "setting": "[35]", "result": "> 42.7", "unit": "µM"}, {"measurement": "TGI", "setting": "[36]", "result": "> 100", "unit": "µM"}, {"measurement": "TGI", "setting": "[37]", "result": "> 100", "unit": "µM"}, {"measurement": "TGI", "setting": "[38]", "result": "> 100", "unit": "µM"}, {"measurement": "TGI", "setting": "[39]", "result": "> 100", "unit": "µM"}, {"measurement": "TGI", "setting": "[40]", "result": "> 100", "unit": "µM"}, {"measurement": "TGI", "setting": "[41]", "result": "> 100", "unit": "µM"}, {"measurement": "TGI", "setting": "[42]", "result": "> 100", "unit": "µM"}, {"measurement": "TGI", "setting": "[43]", "result": "> 100", "unit": "µM"}, {"measurement": "TGI", "setting": "[44]", "result": "> 100", "unit": "µM"}, {"measurement": "TGI", "setting": "[45]", "result": "> 100", "unit": "µM"}, {"measurement": "TGI", "setting": "[46]", "result": "> 100", "unit": "µM"}, {"measurement": "TGI", "setting": "[47]", "result": "> 100", "unit": "µM"}, {"measurement": "TGI", "setting": "[48]", "result": "> 100", "unit": "µM"}, {"measurement": "TGI", "setting": "[49]", "result": "> 100", "unit": "µM"}, {"measurement": "TGI", "setting": "[50]", "result": "> 100", "unit": "µM"}, {"measurement": "TGI", "setting": "[51]", "result": "> 100", "unit": "µM"}, {"measurement": "TGI", "setting": "[52]", "result": "> 100", "unit": "µM"}, {"measurement": "TGI", "setting": "[53]", "result": "> 100", "unit": "µM"}, {"measurement": "TGI", "setting": "[54]", "result": "> 100", "unit": "µM"}, {"measurement": "TGI", "setting": "[55]", "result": "> 100", "unit": "µM"}, {"measurement": "TGI", "setting": "[56]", "result": "> 100", "unit": "µM"}, {"measurement": "TGI", "setting": "[57]", "result": "> 100", "unit": "µM"}]}]}
